From patent US20230263822A1, “MODULATION OF FACTOR 11 EXPRESSION” (Ionis Pharmaceuticals, Inc., priority 2008, published 2023)
Strand notation (5' to 3'): a small letter for the sugar, then the base; units joined by * are phosphorothioate-linked, units joined directly phosphodiester-linked; [ ] holds rarer units or linkages, { } end groups; capitals alone tell only the bases. e = 2'-O-(2-methoxyethyl) (MOE); [5mC] = 5-methylcytosine; d = 2'-deoxy (DNA)

Key:
human Factor 11 mRNA [1] = assay: Antisense inhibition of human Factor 11 in HepG2 cells by microwalk gapmers, lipofectin, 75 nM (Example 3); assay type: cell-based
Procedure, shortened: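 HepG2 cells (10,000/well) were transfected via lipofectin with 75 nM 20-mer MOE gapmers (phosphorothioate, 5-methyl-C) for about 24 h. Factor 11 mRNA was measured by qRT-PCR, normalized to RIBOGREEN total RNA, and given as percent inhibition versus untreated cells.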

human Factor 11 mRNA [2] = assay: Dose-dependent inhibition of human Factor 11 in HepG2 cells, lipofectin 9.375-75 nM (Example 4); assay type: cell-based; conditions: for percent inhibition of Factor 11 at 9.375 nM / percent inhibition of Factor 11 at 18.75 nM / percent inhibition of Factor 11 at 37.5 nM / percent inhibition of Factor 11 at 75 nM: relative to untreated control cells
Procedure, shortened: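 HepG2 cells transfected via lipofectin with antisense oligonucleotide at 9.375, 18.75, 37.5 or 75 nM for about 16 h. Factor 11 mRNA quantified by real-time RT-PCR (primer probe set RTS 2966) and normalized to total RNA (RIBOGREEN). Results expressed as percent inhibition versus untreated cells.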

human Factor 11 mRNA [3] = assay: Antisense inhibition of human Factor 11 in HepG2 cells, electroporation, 8,000 nM (Example 30); assay type: cell-based; conditions: electroporation, 8,000 nM antisense oligonucleotide
Procedure, shortened: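 HepG2 cells electroporated with 8,000 nM 5-10-5, 5-8-5 or 6-8-6 MOE gapmers (phosphorothioate, 5-methylcytidine), ~24 h. Factor 11 mRNA quantified by qRT-PCR, normalised to RIBOGREEN total RNA. Reported as percent inhibition versus untreated cells.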

[4] = Tolerability in Sprague-Dawley rats: kidney function, urine protein/creatinine (Example 35); conditions: for Urine protein/creatinine ratio: Sprague Dawley rats; for BUN / Creatinine: Sprague-Dawley rats, plasma
Method: A control group of four Sprague Dawley rats was injected subcutaneously with PBS twice per week for 6 weeks. Body weight measurements were taken before and throughout the treatment period. Urine samples were taken before the start of treatment. Three days after the last dose, urine samples were taken and the rats were sacrificed. Organ weights were measured and blood was collected for further analysis.
To evaluate the effect of kidney function, plasma concentrations of blood urea nitrogen (BUN) and creatinine were measured using an automated clinical chemistry analyzer (Hitachi Olympus AU400e, Melville, N.Y.).

[5] = HepG2 cells, lipofectin, gapmers targeted to nucleobases 1275 to 1318 of SEQ ID NO: 1
[6] = HepG2, lipofectin, ~24 h, gapmers targeted to nucleobases 656 to 704 of SEQ ID NO: 1
[7] = After treatment, 50 mg/kg s.c. twice per week for 6 weeks
[8] = Before antisense oligonucleotide treatment
[9] = 50 mg/kg s.c. twice per week for 6 weeks

Substance	% inhibition (human Factor 11 mRNA [1]; HepG2 cells, lipofectin, gapmers targeted to nucleobases 738 to 762 of SEQ ID NO: 1) [%]	IC50 (human Factor 11 mRNA [2]) [µM]	percent inhibition of Factor 11 at 9.375 nM (human Factor 11 mRNA [2]) [%]	percent inhibition of Factor 11 at 18.75 nM (human Factor 11 mRNA [2]) [%]	percent inhibition of Factor 11 at 37.5 nM (human Factor 11 mRNA [2]) [%]	percent inhibition of Factor 11 at 75 nM (human Factor 11 mRNA [2]) [%]	Percent inhibition of human Factor 11 mRNA levels (human Factor 11 mRNA [3]) [%]	% inhibition (human Factor 11 mRNA [1]; [5]) [%]	% inhibition (human Factor 11 mRNA [1]; [6]) [%]	Urine protein/creatinine ratio [4, 7]	Urine protein/creatinine ratio [4, 8]	% inhibition (human Factor 11 mRNA [1]; HepG2 cells, lipofectin, gapmers targeted to nucleobases 1018 to 1042 of SEQ ID NO: 1) [%]	BUN [4, 9] [mg/dL]	Creatinine [4, 9] [mg/dL]
412206 (antisense e[5mC]*e[5mC]*eG*eT*eG*d[5mC]*dA*dT*d[5mC]*dT*dT*dT*d[5mC]*dT*dT*eG*eG*e[5mC]*eA*eT) [compound 412206]	93	0.021	24	47	69	86	91							
412223 (antisense ACAGTTTCTGGCAGGCCTCG; 5-10-5 MOE gapmer, further chemistry not given here) [compound 412223]							62	85						
412224 (antisense GCATTGGTGCACAGTTTCTG; 5-10-5 MOE gapmer, further chemistry not given here) [compound 412224]							84	93						
412225 (antisense GCAGCGGACGGCATTGGTGC; 5-10-5 MOE gapmer, further chemistry not given here) [compound 412225]							86	86						
413482 (antisense GGACGGCATTGGTGCACAGT; 5-10-5 MOE gapmer, further chemistry not given here) [compound 413482]							88	89						
416825 (antisense GCCCTTCATGTCTAGGTCCA; 5-10-5 gapmer, further chemistry not given here) [compound 416825]		0.02	23	52	73	92	90		92	5.4	1.1			
416826 (antisense ATGCCCTTCATGTCTAGGTC; 5-10-5 gapmer, further chemistry not given here) [compound 416826]		0.029	8	36	58	84			94	11.4	1.0			
416838 (antisense GCAACCGGGATGATGAGTGC; 5-10-5 gapmer, further chemistry not given here) [compound 416838]		0.019	31	51	64	86				3.7	1.2	94		
416850 (antisense TGCACAGTTTCTGGCAGGCC; 5-10-5 gapmer, further chemistry not given here) [compound 416850]		0.029	4	30	67	84	91	93		4.0	1.0			
416856 (antisense GGCATTGGTGCACAGTTTCT; 5-10-5 gapmer, further chemistry not given here) [compound 416856]		0.027	21	45	58	74	84	95						
416858 (antisense ACGGCATTGGTGCACAGTTT; 5-10-5 gapmer, further chemistry not given here) [compound 416858]		0.033	0	28	54	82	90	93		4.4	0.9			
416892 (antisense GCCCTTCATGTCTAGGTCCA; 3-14-3 chimeric gapmer, further chemistry not given here) [compound 416892]		0.023	16	50	70	85			100	21.3	0.8			
416925 (antisense GGTGCACAGTTTCTGGCAGG; 3-14-3 gapmer chemistry, further chemistry not given here) [compound 416925]		0.03	13	38	59	75		98		4.3	1.0			
416999 (antisense GCACAGTTTCTGGCAGGCCT; 2-13-5 gapmer chemistry, further chemistry not given here) [compound 416999]		0.03	24	37	55	73		92		9.1	1.3			
417002 (antisense GGTGCACAGTTTCTGGCAGG; 2-13-5 gapmer chemistry, further chemistry not given here) [compound 417002]		0.019	35	52	67	70		92		2.4	1.0			
417003 (antisense TGGTGCACAGTTTCTGGCAG; 2-13-5 gapmer chemistry, further chemistry not given here) [compound 417003]		0.033	26	44	60	56		89		4.8	0.9			
445522 (antisense eG*e[5mC]*eA*e[5mC]*eA*dG*dT*dT*dT*d[5mC]*dT*dG*dG*e[5mC]*eA*eG*eG*e[5mC]) [compound 445522]							91							
445531 (antisense eG*eG*e[5mC]*eA*eT*dT*dG*dG*dT*dG*d[5mC]*dA*d[5mC]*eA*eG*eT*eT*eT) [compound 445531]							90							
ISIS 416838: MOE gapmer, nucleobases 1018 to 1042 of SEQ ID NO: 1 (Table 6) (antisense GCAACCGGGATGATGAGTGC; MOE gapmer, wing and gap sizes not given here)													4	5
ISIS 416850: MOE gapmer, nucleobases 1275 to 1318 of SEQ ID NO: 1 (Table 8) (antisense TGCACAGTTTCTGGCAGGCC; MOE gapmer, wing and gap sizes not given here)													5	7
ISIS 416858: MOE gapmer, nucleobases 1275 to 1318 of SEQ ID NO: 1 (Table 8) (antisense ACGGCATTGGTGCACAGTTT; MOE gapmer, wing and gap sizes not given here)													8	4
ISIS 416864: MOE gapmer, nucleobases 1275 to 1318 of SEQ ID NO: 1 (Table 8) (antisense GGCAGCGGACGGCATTGGTG; MOE gapmer, wing and gap sizes not given here)													5	6
ISIS 417002: MOE gapmer, nucleobases 1275 to 1318 of SEQ ID NO: 1 (Table 8) (antisense GGTGCACAGTTTCTGGCAGG; MOE gapmer, wing and gap sizes not given here)													11	1
